Results from US12383548B2, “Antibacterial quinolines” (priority 2019, dated 2025).
Converted amounts (≈) assume the structure as drawn. Structures can show the parent of a compound that is named as a salt. Where two headings read alike, the source gives them in different places.

Legend:
[1] = system: susceptible H37Rv M. tuberculosis, strain ATCC 25618; assay: Mycobacterium tuberculosis susceptibility assay REMA (resazurin microtiter assay); format: cell-based; parameters: REMA MIC: unit not given here; settings: for MIC: Mycobacterium tuberculosis, 144 h, read-out: REMA MIC
[2] = system: HepG2 cell line; assay: in vitro cytotoxicity assay (MTS tetrazolium reduction, cell viability); format: cell-based; settings: Homo sapiens, HepG2, 48 h
Method: In an embodiment, the in vitro cytotoxicity assay was carried out as follows. […] The assay was performed in 96 well plates for 48 h at 37° C. and 5% CO2 in incubation medium (low glucose DMEM with Glutamax, 10% FBS, 1% Pen/Strep and DMSO). Cells were exposed to 8 different compound concentrations in successive dilutions (usually, base 2), plus a positive control (a compound in a concentration known to decrease cell viability above 50%) and a negative control (incubation medium). Six replicate wells were assayed for each condition. Compound stock solutions were prepared in DMSO at 20 mM, whenever possible, filter sterilized, aliquoted and stored at −20° C. The maximum compound concentrations tested depend on its solubility in incubation medium, and on the maximum DMSO percentage allowable without loss of cell viability. At the end of the incubation period, tetrazolium reagent was added (CellTiter 96® AQueous Solution from Promega); cells were incubated for another 3 hours in order to promote tetrazolium reduction to formazan by viable cells. The amount of soluble formazan produced was evaluated by 490 nm absorbance reading in a spectrophotometer plate reader.

[3] = Table 1, MTB growth, H37Rv, 6 days at 37° C., Middlebrook 7H9
[4] = Table 2, MTB growth, H37Rv, 6 days at 37° C., Middlebrook 7H9
[5] = Table 1, cytotoxicity, MTS, read-out: IC50

Work on `O=C(O)C1CCN(c2ccc3cc(-c4ccc(OC(F)(F)F)cc4)ccc3n2)CC1` [Compound 2, 1-(6-(4-(Trifluoromethoxy)phenyl)quinolin-2-yl)piperidine-4-carboxylic acid] yielded an MIC [1, 3] of less than 7.8 µM and an MIC [1, 4] of less than 7.8 µM.

With `CCOC(=O)C1CCN(c2ccc3cc(-c4ccc(O)cc4)ccc3n2)CC1` [Compound 3, Ethyl 1-(6-(4-hydroxyphenyl)quinolin-2-yl)piperidine-4-carboxylate] the IC50 [2, 5] was greater than 100 µM and the MIC [1, 3] was 7.8 to 15.6 µM (≈ 2.94 to 5.87 µg/mL).

Molecule `CCOC(=O)C1CCN(c2ccc3cc(-c4cnc(OC)nc4)ccc3n2)CC1` [Compound 4, ethyl 1-(6-(2-methoxypyrimidin-5-yl)quinolin-2-yl)piperidine-4-carboxylate] has an IC50 [2, 5] greater than 100 µM, an IC50 ([2]; Table 2, cytotoxicity, MTS, read-out: IC50) greater than 100 µM and an MIC [1, 3] of less than 7.8 µM. It also gave an MIC [1, 4] of less than 7.8 µM.

`CCOC(=O)C1CCN(c2ccc3cc(-c4cccc(F)c4)ccc3n2)CC1` [Compound 8, ethyl 1-(6-(3-fluorophenyl)quinolin-2-yl)piperidine-4-carboxylate] showed an MIC [1, 3] of less than 7.8 µM and an MIC [1, 4] of less than 7.8 µM.

With `CC(C)Oc1ccc(-c2ccc3nc(N4CCC(C(=O)O)CC4)ccc3c2)cc1F` [Compound 10, 1-(6-(3-fluoro-4-isopropoxyphenyl)quinolin-2-yl)piperidine-4-carboxylic acid] the MIC [1, 3] was less than 7.8 µM and the MIC [1, 4] was less than 7.8 µM.

Work on `O=C(O)C1CCN(c2ccc3cc(-c4cccc(F)c4)ccc3n2)CC1` [Compound 11, 1-(6-(3-fluorophenyl)quinolin-2-yl)piperidine-4-carboxylic acid] yielded an MIC [1, 3] of less than 7.8 µM and an MIC [1, 4] of less than 7.8 µM.

For `CCOC(=O)C1CCN(c2ccc3cc(-c4ccc(OC)nc4)ccc3n2)CC1` [Compound 14, ethyl 1-(6-(6-methoxypyridin-3-yl)quinolin-2-yl)piperidine-4-carboxylate], the MIC [1, 3] was less than 7.8 µM and the MIC [1, 4] was less than 7.8 µM.

Work on `CCOC(=O)C1CCN(c2ccc3cc(-c4ccncc4)ccc3n2)CC1` [Compound 15, ethyl 1-(6-(pyridin-4-yl)quinolin-2-yl)piperidine-4-carboxylate hydrochloride] yielded an IC50 [2] greater than 100 µM and an MIC [1] of 7.8 to 15.6 µM.

For `CCOC(=O)C1CCN(c2ccc3cc(-c4ccco4)ccc3n2)CC1` [Compound 16, ethyl 1-(6-(furan-2-yl)quinolin-2-yl)piperidine-4-carboxylate], the IC50 [2, 5] was greater than 100 µM and the MIC [1, 3] was 7.8 to 15.6 µM (≈ 2.73 to 5.47 µg/mL).

In the case of `O=C(O)C1CCN(c2ccc3cc(-c4ccncc4)ccc3n2)CC1` [Compound 18, 1-(6-(pyridin-4-yl)quinolin-2-yl)piperidine-4-carboxylic acid hydrochloride], the MIC [1] is reported as 7.8 to 15.6 µM.

With `CCOC(=O)C1CCN(c2ccc3cc(-c4ccc(OC)cc4Cl)ccc3n2)CC1` [Compound 19, ethyl 1-(6-(2-chloro-4-methoxyphenyl)quinolin-2-yl)piperidine-4-carboxylate] the MIC [1, 3] was less than 7.8 µM and the MIC [1, 4] was less than 7.8 µM.

`CCOC(=O)C1CCN(c2ccc3cc(-c4ccc(OC)cc4)ccc3n2)CC1` [Compound 20, ethyl 1-(6-(4-methoxyphenyl)quinolin-2-yl)piperidine-4-carboxylate] gave an IC50 [2] greater than 100 µM and an MIC [1] of 7.8 to 15.6 µM (≈ 3.05 to 6.09 µg/mL).

`COc1ccc(-c2ccc3nc(N4CCC(C(=O)O)CC4)ccc3c2)cc1` [Compound 21, 1-(6-(4-methoxyphenyl)quinolin-2-yl)piperidine-4-carboxylic acid] was tested, and the MIC [1, 3] was less than 7.8 µM and the MIC [1, 4] was less than 7.8 µM.

`COc1cccc(-c2ccc3nc(N4CCC(C(=O)O)CC4)ccc3c2)c1` [Compound 22, 1-(6-(3-methoxyphenyl)quinolin-2-yl)piperidine-4-carboxylic acid] gave an IC50 [2, 5] greater than 100 µM and an MIC [1, 3] of 7.8 to 15.6 µM (≈ 2.83 to 5.65 µg/mL).

Work on `COc1ccc(-c2ccc3nc(N4CCC(C(=O)O)CC4)ccc3c2)c(Cl)c1` [Compound 23, 1-(6-(2-chloro-4-methoxyphenyl)quinolin-2-yl)piperidine-4-carboxylic acid] yielded an MIC [1, 3] of 7.8 to 15.6 µM (≈ 3.1 to 6.19 µg/mL).

With `CCOC(=O)C1CCN(c2ccc3cc(-c4ccc(OC)cc4C(F)(F)F)ccc3n2)CC1` [Compound 24, ethyl 1-(6-(4-methoxy-2-(trifluoromethyl)phenyl)quinolin-2-yl)piperidine-4-carboxylate hydrochloride] the MIC [1] was less than 7.8 µM and the “REMA MIC” value [1, 4] was “++++ (<7.8)”.

For `CCOC(=O)C1CCN(c2ccc3cc(-c4cccc(OC(F)(F)F)c4)ccc3n2)CC1` [Compound 25, ethyl 1-(6-(3-(trifluoromethoxy)phenyl)quinolin-2-yl)piperidine-4-carboxylate], the MIC [1, 3] was less than 7.8 µM and the MIC [1, 4] was less than 7.8 µM.

In the case of `O=C(O)C1CCN(c2ccc3cc(-c4cccc(OC(F)(F)F)c4)ccc3n2)CC1` [Compound 29, 1-(6-(3-(trifluoromethoxy)phenyl)quinolin-2-yl)piperidine-4-carboxylic acid], the MIC [1, 3] is reported as less than 7.8 µM and the MIC [1, 4] is reported as less than 7.8 µM.

Work on `CCOC(=O)C1CCN(c2ccc3cc(-c4cccc(OC)c4)ccc3n2)CC1` [Compound 30, ethyl 1-(6-(3-methoxyphenyl)quinolin-2-yl)piperidine-4-carboxylate] yielded an IC50 [2, 5] greater than 100 µM and an MIC [1, 3] of 7.8 to 15.6 µM (≈ 3.05 to 6.09 µg/mL).

With `CCOC(=O)C1CCN(c2ccc3cc(-c4ccc(F)nc4)ccc3n2)CC1` [Compound 35, ethyl 1-(6-(6-fluoropyridin-3-yl)quinolin-2-yl)piperidine-4-carboxylate] the IC50 [2, 5] was greater than 100 µM and the MIC [1, 3] was 7.8 to 15.6 µM (≈ 2.96 to 5.92 µg/mL).

Work on `CCOC(=O)C1CCN(c2ccc3cc(-c4ccnc(F)c4)ccc3n2)CC1` [Compound 37, ethyl 1-(6-(2-fluoropyridin-4-yl)quinolin-2-yl)piperidine-4-carboxylate] yielded an IC50 [2, 5] of 50 to 100 µM and an MIC [1, 3] of 7.8 to 15.6 µM (≈ 2.96 to 5.92 µg/mL).

`CCOC(=O)C1CCN(c2ccc3cc(-c4ccnc(C)c4)ccc3n2)CC1` [Compound 40, ethyl 1-(6-(2-methylpyridin-4-yl)quinolin-2-yl)piperidine-4-carboxylate] gave an IC50 [2, 5] of 20 to 50 µM and an MIC [1, 3] of 7.8 to 15.6 µM (≈ 2.93 to 5.86 µg/mL).

With `CCOC(=O)C1CCN(c2ccc3cc(-c4cc(OC)cc(OC)c4)ccc3n2)CC1` [Compound 41, ethyl 1-(6-(3,5-dimethoxyphenyl)quinolin-2-yl)piperidine-4-carboxylate] the IC50 [2, 5] was 50 to 100 µM and the MIC [1, 3] was 7.8 to 15.6 µM (≈ 3.28 to 6.56 µg/mL).

With `CCOC(=O)C1CCN(c2ccc3cc(-c4ccc(C)nc4)ccc3n2)CC1` [Compound 50, ethyl 1-(6-(6-methylpyridin-3-yl)quinolin-2-yl)piperidine-4-carboxylate] the MIC [1, 3] was less than 7.8 µM and the MIC [1, 4] was less than 7.8 µM.

With `CCOC(=O)C1CCN(c2ccc3cc(-c4ccccn4)ccc3n2)CC1` [Compound 55, ethyl 1-(6-(pyridin-2-yl)quinolin-2-yl)piperidine-4-carboxylate] the MIC [1, 3] was less than 7.8 µM and the MIC [1, 4] was less than 7.8 µM.

`CCOC(=O)C1CCN(c2ccc3cc(-c4ccc(OC)c(F)c4)ccc3n2)CC1` [Compound 58, ethyl 1-(6-(3-fluoro-4-methoxyphenyl)quinolin-2-yl)piperidine-4-carboxylate] gave an MIC [1, 3] of less than 7.8 µM and an MIC [1, 4] of less than 7.8 µM.

Work on `CCOC(=O)C1CCN(c2ccc3cc(-c4ccc(Cl)c(F)c4)ccc3n2)CC1` [Compound 63, ethyl 1-(6-(4-chloro-3-fluorophenyl)quinolin-2-yl)piperidine-4-carboxylate] yielded an MIC [1, 3] of less than 7.8 µM and an MIC [1, 4] of less than 7.8 µM.

Work on `CCOC(=O)C1CCN(c2ccc3cc(-c4cccc(Cl)c4)ccc3n2)CC1` [Compound 64, ethyl 1-(6-(3-chlorophenyl)quinolin-2-yl)piperidine-4-carboxylate] yielded an MIC [1, 3] of 7.8 to 15.6 µM (≈ 3.08 to 6.16 µg/mL).

`CCOC(=O)C1CCN(c2ccc3cc(-c4ccncc4)ccc3n2)C1` (stereo not shown) [Compound 67, ethyl 1-(6-(pyridin-4-yl)quinolin-2-yl)pyrrolidine-3-carboxylate] was tested, and the MIC [1, 3] was 7.8 to 15.6 µM (≈ 2.71 to 5.42 µg/mL).

Molecule `CCOC(=O)C1CCN(c2ccc3cc(-c4cc5ccccc5s4)ccc3n2)CC1` [Compound 68, ethyl 1-(6-(benzo[b]thiophen-2-yl)quinolin-2-yl)piperidine-4-carboxylate] has an MIC [1, 3] of 7.8 to 15.6 µM (≈ 3.25 to 6.5 µg/mL).

For `CCOC(=O)C1CCN(c2ccc3cc(-c4ccccc4C(F)(F)F)ccc3n2)CC1` [Compound 69, ethyl 1-(6-(2-(trifluoromethyl)phenyl)quinolin-2-yl)piperidine-4-carboxylate], the MIC [1, 3] was less than 7.8 µM and the MIC [1, 4] was less than 7.8 µM.

`CCOC(=O)C1CCN(c2ccc3cc(-c4ccccc4OC(F)(F)F)ccc3n2)CC1` [Compound 70, ethyl 1-(6-(2-(trifluoromethoxy)phenyl)quinolin-2-yl)piperidine-4-carboxylate] gave an MIC [1, 3] of less than 7.8 µM.

In the case of `CCOC(=O)C1CCN(c2ccc3cc(-c4ccc(F)cc4OC)ccc3n2)CC1` [Compound 71, ethyl 1-(6-(4-fluoro-2-methoxyphenyl)quinolin-2-yl)piperidine-4-carboxylate], the MIC [1, 4] is reported as less than 7.8 µM.

Molecule `CCOC(=O)C1CCN(c2ccc3cc(-c4ccc(OC)c(C(F)(F)F)c4)ccc3n2)CC1` [Compound 72, ethyl 1-(6-(4-methoxy-3-(trifluoromethyl)phenyl)quinolin-2-yl)piperidine-4-carboxylate] has an MIC [1, 3] of 7.8 to 15.6 µM (≈ 3.58 to 7.15 µg/mL).

`CCOC(=O)C1CCN(c2ccc3cc(-c4cccc(F)c4)ccc3n2)CC1` [Compound 74, ethyl 1-(6-(3-fluorophenyl)quinolin-2-yl)piperidine-4-carboxylate] was tested, and the “REMA MIC” value [1, 3] was “+++ (7.8-15.6)”.

Molecule `CCOC(=O)C1CCN(c2ccc3cc(-c4ccc(F)c(Cl)c4)ccc3n2)CC1` [Compound 75, ethyl 1-(6-(3-chloro-4-fluorophenyl)quinolin-2-yl)piperidine-4-carboxylate] has an MIC [1, 3] of 7.8 to 15.6 µM (≈ 3.22 to 6.44 µg/mL).
